{"source": "patent US10633353B2", "about": "“Polymerizable compound, composition, polymer, optically anisotropic body, liquid crystal display element, and organic EL display” (DIC Corporation, priority 2014, dated 2020)", "key": {"[1]": {"test": "Preservation stability of the coating liquid", "assay_type": "physicochemical", "summary_of_the_method": "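Coating liquid stored 2 months at 0° C shielded from light, then graded A–E. Grades rest on visual appearance, change in composition by GPC, and weight ratio of insoluble components to total solids.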"}, "[2]": {"test": "Optical stability of the optical film (xenon-lamp irradiation)", "assay_type": "physicochemical", "conditions": "summary in words", "method": "The coating liquid was applied to a glass substrate by spin coating, the glass substrate including a rubbed polyimide layer deposited thereon. The glass substrate was then placed on a hot plate, dried at 80° C. for 1 minute, and further dried at 140° C. for another 1 minute. Subsequently, irradiation with ultraviolet radiation at 1000 mJ/cm and 140° C. was performed.\nThe optical film was irradiated with light at 50 mW/cm^2, 25° C., and 100 J using a xenon-lamp irradiation testing machine (SUNTEST XLS, produced by Atlas). The optical stability of the optical film was evaluated on a scale of A to E below.\nA: No change in the film was visually confirmed. An inspection of the optical film with a polarized light microscope also confirmed no defects.\nB: Although no change in the film was visually confirmed, an inspection of the optical film with a polarized light microscope confirmed slight orientation defects.\nC: Slight yellowing of the film was visually confirmed.\nD: Yellowing of the film was visually confirmed. In addition, the optical film was partly detached from the glass substrate.\nE: Yellowing of the entire film was visually confirmed. In addition, the optical film was detached from the glass substrate."}, "[3]": {"conditions": "coating liquid stored for 2 months shielded from light at 0° C., appearance and GPC"}}}
{"compound": "C=CC(=O)OCCCCCCOc1ccc(OC(=O)C2CCC(C(=O)OCCc3ccc(OC(=O)C4CCC(C(=O)Oc5ccc(OCCCCCCOC(=O)C=C)cc5)CC4)c(/C=N/N(CCCCCC)c4nc5ccccc5s4)c3)CC2)cc1", "note": "(stereo not shown) [1-cmn-82]", "values": [{"measurement": "Preservation stability", "setting": "[1]; [3]", "result": "A (No visual change in the appearance of the coating liquid was confirmed. A GPC analysis of the coating liquid confirmed that the change in the composition of the coating liquid was 1% or less.)"}, {"measurement": "Preservation stability", "setting": "[1]; summary in words", "result": "high"}, {"measurement": "optical stability", "setting": "[2]", "result": "high"}]}
{"compound": "C=CC(=O)OCCCCOC(=O)C1CCC(C(=O)OC2CCC(C(=O)Oc3ccc(OC(=O)C4CCC(OC(=O)C5CCC(C(=O)OCCCCOC(=O)C=C)CC5)CC4)c(/C=N/N(CCC)c4nc5ccccc5s4)c3)CC2)CC1", "note": "(stereo not shown) [1-f-100]", "values": [{"measurement": "Preservation stability", "setting": "[1]; [3]", "result": "A (No visual change in the appearance of the coating liquid was confirmed. A GPC analysis of the coating liquid confirmed that the change in the composition of the coating liquid was 1% or less.)"}]}
{"compound": "C=CC(=O)OCCCCOC(=O)C1CCC(C(=O)OC2CCC(C(=O)Oc3ccc(OC(=O)C4CCC(OC(=O)C5CCC(C(=O)OCCCCOC(=O)C=C)CC5)CC4)c(/C=N/N(CCC)c4nc5ccccc5s4)c3)CC2)CC1", "note": "(stereo not shown) [1-f-101]", "values": [{"measurement": "Preservation stability", "setting": "[1]; [3]", "result": "A (No visual change in the appearance of the coating liquid was confirmed. A GPC analysis of the coating liquid confirmed that the change in the composition of the coating liquid was 1% or less.)"}]}
{"compound": "C=CC(=O)OCCCCOC(=O)C1CCC(C(=O)OC2CCC(C(=O)Oc3ccc(OC(=O)C4CCC(OC(=O)C5CCC(C(=O)OCCCCOC(=O)C=C)CC5)CC4)c(/C=N/N(CC)c4nc5ccccc5s4)c3)CC2)CC1", "note": "(stereo not shown) [1-f-102]", "values": [{"measurement": "Preservation stability", "setting": "[1]; [3]", "result": "A (No visual change in the appearance of the coating liquid was confirmed. A GPC analysis of the coating liquid confirmed that the change in the composition of the coating liquid was 1% or less.)"}]}
{"compound": "C=CC(=O)OCCCCOC(=O)C1CCC(C(=O)OC2CCC(C(=O)Oc3ccc(OC(=O)C4CCC(OC(=O)C5CCC(C(=O)OCCCCOC(=O)C=C)CC5)CC4)c(/C=N/N(C)c4nc5ccccc5s4)c3)CC2)CC1", "note": "(stereo not shown) [1-f-103]", "values": [{"measurement": "Preservation stability", "setting": "[1]; [3]", "result": "A (No visual change in the appearance of the coating liquid was confirmed. A GPC analysis of the coating liquid confirmed that the change in the composition of the coating liquid was 1% or less.)"}]}
{"compound": "C=CC(=O)Oc1ccc(C(=O)Oc2ccc(OC(=O)c3ccc(OC(=O)C=C)cc3)c(/C=N/Nc3nc4ccccc4s3)c2)cc1", "note": "[1-g-35]", "values": [{"measurement": "Preservation stability", "setting": "[1]; [3]", "result": "B (No visual change in the appearance of the coating liquid was confirmed. A GPC analysis of the coating liquid confirmed that the change in the composition of the coating liquid was 2% or less.)"}]}
{"compound": "C=CC(=O)OCCCCCCOc1ccc(C(=O)Oc2ccc(-c3ccc(OC(=O)c4ccc(OCCCCCCOC(=O)C=C)cc4)c(/C=N/Nc4nc5ccccc5s4)c3)cc2)cc1", "note": "[1-hk-84]", "values": [{"measurement": "Preservation stability", "setting": "[1]; [3]", "result": "A (No visual change in the appearance of the coating liquid was confirmed. A GPC analysis of the coating liquid confirmed that the change in the composition of the coating liquid was 1% or less.)"}, {"measurement": "Preservation stability", "setting": "[1]; summary in words", "result": "high"}]}
{"compound": "C=CC(=O)OCCCCCCOc1ccc(C(=O)Oc2ccc(-c3ccc(OC(=O)c4ccc(OCCCCCCOC(=O)C=C)cc4)cc3/C=N/Nc3nc4ccccc4s3)cc2)cc1", "note": "[1-hk-85]", "values": [{"measurement": "Preservation stability", "setting": "[1]; [3]", "result": "A (No visual change in the appearance of the coating liquid was confirmed. A GPC analysis of the coating liquid confirmed that the change in the composition of the coating liquid was 1% or less.)"}, {"measurement": "Preservation stability", "setting": "[1]; summary in words", "result": "high"}]}
{"compound": "C=CC(=O)OCCCCCCOc1ccc(C(=O)Oc2ccc(-c3ccc(OC(=O)c4ccc(OCCCCCCOC(=O)C=C)cc4)cc3C=NN=C3c4ccccc4-c4ccccc43)cc2)cc1", "note": "[1-hk-86]", "values": [{"measurement": "Preservation stability", "setting": "[1]; [3]", "result": "A (No visual change in the appearance of the coating liquid was confirmed. A GPC analysis of the coating liquid confirmed that the change in the composition of the coating liquid was 1% or less.)"}, {"measurement": "Preservation stability", "setting": "[1]; summary in words", "result": "high"}]}
{"compound": "C=CC(=O)OCCCOC(=O)/C=C/c1ccc(C(=O)Oc2ccc(OC(=O)c3ccc(/C=C/C(=O)OCCCOC(=O)C=C)cc3OC)c(/C=N/Nc3nc4ccccc4s3)c2)c(OC)c1", "note": "[1-j-57]", "values": [{"measurement": "Preservation stability", "setting": "[1]; [3]", "result": "B (No visual change in the appearance of the coating liquid was confirmed. A GPC analysis of the coating liquid confirmed that the change in the composition of the coating liquid was 2% or less.)"}]}
{"compound": "C=CC(=O)OCCCOC(=O)/C=C/c1ccc(C(=O)Oc2ccc(OC(=O)c3ccc(/C=C/C(=O)OCCCOC(=O)C=C)cc3)c(/C=N/Nc3nc4ccccc4s3)c2)cc1", "note": "[1-j-61]", "values": [{"measurement": "Preservation stability", "setting": "[1]; [3]", "result": "B (No visual change in the appearance of the coating liquid was confirmed. A GPC analysis of the coating liquid confirmed that the change in the composition of the coating liquid was 2% or less.)"}]}
{"compound": "C=CC(=O)OCCCCCCOC(=O)/C=C/c1ccc(C(=O)Oc2ccc(OC(=O)c3ccc(/C=C/C(=O)OCCCCCCOC(=O)C=C)cc3)c(/C=N/Nc3nc4ccccc4s3)c2)cc1", "note": "[1-j-62]", "values": [{"measurement": "Preservation stability", "setting": "[1]; [3]", "result": "B (No visual change in the appearance of the coating liquid was confirmed. A GPC analysis of the coating liquid confirmed that the change in the composition of the coating liquid was 2% or less.)"}]}
{"compound": "C=CC(=O)OCCCCOC(=O)/C=C/c1ccc(C(=O)Oc2ccc(OC(=O)c3ccc(/C=C/C(=O)OCCCCOC(=O)C=C)cc3)c(/C=N/N(c3ccccc3)c3ccccc3)c2)cc1", "note": "[1-j-64]", "values": [{"measurement": "Preservation stability", "setting": "[1]; [3]", "result": "B (No visual change in the appearance of the coating liquid was confirmed. A GPC analysis of the coating liquid confirmed that the change in the composition of the coating liquid was 2% or less.)"}]}
{"compound": "C=CC(=O)OCCCCOC(=O)/C=C/c1ccc(C(=O)Oc2ccc(OC(=O)c3ccc(/C=C/C(=O)OCCCCOC(=O)C=C)cc3)c(/C=N/Nc3nc4ccc5ccccc5c4s3)c2)cc1", "note": "[1-j-65]", "values": [{"measurement": "Preservation stability", "setting": "[1]; [3]", "result": "B (No visual change in the appearance of the coating liquid was confirmed. A GPC analysis of the coating liquid confirmed that the change in the composition of the coating liquid was 2% or less.)"}]}
{"compound": "C=CC(=O)OCCCCCCOc1ccc(C(=O)Oc2ccc(OC(=O)c3ccc(OCCCCCCOC(=O)C=C)cc3)c3sc(-c4ccc([N+](=O)[O-])cc4)nc23)cc1", "note": "[r-1, reference compound]", "values": [{"measurement": "Preservation stability", "setting": "[1]; [3]", "result": "D (A visual change in the appearance of the coating liquid was confirmed; insoluble components were confirmed. The ratio of the weight of the insoluble components to the total solid content was 5% or less.)"}]}
{"compound": "C=CC(=O)OCCCCCCOc1ccc(OC(=O)C2CCC(C(=O)Oc3ccc(OC(=O)C4CCC(C(=O)Oc5ccc(OCCCCCCOC(=O)C=C)cc5)CC4)c4c3SC(=C(C#N)C#N)S4)CC2)cc1", "note": "(stereo not shown) [r-2, reference compound]", "values": [{"measurement": "Preservation stability", "setting": "[1]; [3]", "result": "C (A visual change in the appearance of the coating liquid was confirmed; a trace amount of insoluble components were confirmed, or a GPC analysis of the coating liquid confirmed that the change in the composition of the coating liquid was 3% or less.)"}]}
{"compound": "C=CC(=O)OCCCCCCOC1CCC(OC(=O)C2CCC(C(=O)Oc3ccc(OC(=O)C4CCC(C(=O)OC5CCC(OCCCCCCOC(=O)C=C)CC5)CC4)c4c3SC(=C(C#N)C(=O)OCC)S4)CC2)CC1", "note": "(stereo not shown) [r-3, reference compound]", "values": [{"measurement": "Preservation stability", "setting": "[1]; [3]", "result": "C (A visual change in the appearance of the coating liquid was confirmed; a trace amount of insoluble components were confirmed, or a GPC analysis of the coating liquid confirmed that the change in the composition of the coating liquid was 3% or less.)"}]}
